# Assays:
# isolated stratum corneum [1] = assay: Keratolytic power, Test 1: counting corneocytes released from patches of isolated stratum corneum; type: cell-based; conditions: 1% by weight solution in PBS + 0.1% Triton X100, pH 7.4, 37° C., 24 hours
# Protocol: (§1) The keratolytic power of a number of compounds of the disclosure was studied. This test comprises counting corneocytes released following incubation of patches of isolated stratum corneum in the presence of the test compounds.
# (§2) Stratum corneum isolated by trypsin/heat from surgical plasties was used. A number of different stratum corneum samples were used. Discs of 4 mm in diameter were punched out and placed at the bottom of a 96-well plate.
# A 1% by weight solution of the compound of Example 1, or (1R,2R)-3-oxo-2-(2Z)pentylcyclopentaneacetic acid (comparative), was prepared in a PBS buffer supplemented with 0.1% of Triton X100. The pH of the solution was adjusted to 7.4.
# 50 microlitres of test solution or of control solution (PBS buffer supplemented with 0.1% of Triton:X100) were added to each well. Incubation was carried out at 37° C. with stirring for 24 hours.
# (§3) 10 microlitres of solution were then withdrawn and were placed in a Malassez cell. The liberated corneocytes were counted under the microscope.
# The results obtained are as follows, expressed as the number of liberated corneocytes per microlitre, averaged over three tests. Corneocyte fragments were not counted.
# isolated stratum corneum [2] = assay: Keratolytic power, Test 2: counting corneocytes released from patches of isolated stratum corneum; type: cell-based; conditions: 1% by weight solution in PBS + 0.1% Triton X100, pH 7.4, 37° C., 24 hours; for number of liberated corneocytes per microlitre, Sample 1 (3 tests): Test 2, Sample 1, average over three tests; for number of liberated corneocytes per microlitre, Sample 2 (3 tests): Test 2, Sample 2, average over three tests; for number of liberated corneocytes per microlitre, Average: Test 2, average of Samples 1 and 2
# Protocol: as §1, §2
# A 1% by weight solution of the compound of Example 1 or salicylic acid, was prepared in a PBS buffer supplemented with 0.1% of Triton X100. The pH of the solution was adjusted to 7.4.
# 50 microlitres of test solution or of control solution (PBS buffer supplemented with 0.1% of Triton X100) were added to each well. Incubation was carried out at 37° C. with stirring for 24 hours.
# as §3
# The results obtained are as follows, expressed as the number of liberated corneocytes per microlitre. Corneocyte fragments were not counted.
Structure (SMILES),"number of liberated corneocytes per microlitre, Average (3 tests per sample, 3 different samples) (isolated stratum corneum [1])","number of liberated corneocytes per microlitre, Sample 1 (3 tests) (isolated stratum corneum [2])","number of liberated corneocytes per microlitre, Sample 2 (3 tests) (isolated stratum corneum [2])","number of liberated corneocytes per microlitre, Average (isolated stratum corneum [2])"
"CC/C=C\C[C@H]1C(=O)CC[C@@H]1CC(=O)O [Comparative, (1R,2R)-3-oxo-2-(2Z)pentylcyclopentaneacetic acid]",12 ± 4 liberated corneocytes per microlitre,–,–,–
"CC/C=C\C[C@H]1C(=O)CC[C@@H]1CC(=O)O (racemic) [Example 1, (±)(1R,2R)-3-oxo-2-[(2Z)-2-pentenyl]cyclopentaneacetic acid]",15 ± 5 liberated corneocytes per microlitre,80 ± 4 liberated corneocytes per microlitre,64 ± 11 liberated corneocytes per microlitre,72 ± 7 liberated corneocytes per microlitre
"O=C(O)c1ccccc1O [Salicylic acid, salicylic acid]",–,33 ± 20 liberated corneocytes per microlitre,21 ± 8 liberated corneocytes per microlitre,27 ± 14 liberated corneocytes per microlitre

# Source: patent US20030224024A1, “Compositions comprising cyclopentane derivatives and their use” (priority 2002, published 2003)
